Source: patent US20020049223A1, “Quinoline and naphthyridine carboxylic acid antibacterials” (priority 1999, published 2002)

Columns and labels:
Assay in all cases: Assay B: in vitro antibacterial activity, broth microdilution MIC (NCCLS)
Format in all cases: cell-based
[1] = system: Enterococcus faecalis PIU 1967; conditions: Table 2, Assay B, cation-adjusted Mueller Hinton broth, 35° C., 16 to 20 hr; code B = Enterococcus faecalis PIU 1967; unit assumed
Procedure, shortened: (§1)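 Serial two-fold dilutions in cation-adjusted Mueller Hinton broth; inoculum ~5×10^5 CFU/mL from overnight cultures; 35° C, ambient air, 16 to 20 hr. MIC read visually as lowest concentration completely inhibiting growth. S. pneumoniae: 3% lysed horse blood, 20 to 24 hr; H. influenzae: 5 g/L yeast extract, 0.3 mmol/L hematin, 15 mg/L NAD, 20 to 24 hr.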

[2] = system: Escherichia coli JUHL; conditions: Table 2, Assay B, cation-adjusted Mueller Hinton broth, 35° C., 16 to 20 hr; code D = Escherichia coli JUHL; unit assumed
Procedure, shortened: as §1

[3] = system: Haemophilus influenzae DILL AMP R; conditions: Table 2, Assay B, Mueller Hinton broth with yeast extract, hematin and NAD, 20 to 24 hr; code E = Haemophilus influenzae DILL AMP R; unit assumed
Procedure, shortened: as §1

[4] = system: Staphylococcus aureus ATCC 6538P; conditions: Table 2, Assay B, cation-adjusted Mueller Hinton broth, 35° C., 16 to 20 hr; code A = Staphylococcus aureus ATCC 6538P; unit assumed
Procedure, shortened: as §1

[5] = system: Streptococcus pneumoniae ATCC 6303; conditions: Table 2, Assay B, Mueller Hinton broth with 3% lysed horse blood, 20 to 24 hr; code F = Streptococcus pneumoniae ATCC 6303; unit assumed
Procedure, shortened: as §1

`COc1c(-c2cc3c(s2)CCCC3NC2CCN(C)CC2)ccc2c(=O)c(C(=O)O)cn(C3CC3)c12.Cl.Cl` (stereo not drawn) [Example 133, 1-cyclopropyl-8-methoxy-7-(4-((1-methyl-4-piperidinyl)amino)-4,5,6,7-tetrahydro-1-benzothien-2-yl)-4-oxo-1,4-dihydro-3-quinolinecarboxylic acid dihydrochloride] was tested, and the Antibacterial Activity (MIC's), B [1] was 1 µg/mL, the Antibacterial Activity (MIC's), D [2] was 1 µg/mL and the Antibacterial Activity (MIC's), E [3] was 1 µg/mL. The Antibacterial Activity (MIC's), A [4] was 0.5 µg/mL and the Antibacterial Activity (MIC's), F [5] was 1 µg/mL.
Compound `Cl.NC1CCCc2cc(-c3ccc4c(=O)c(C(=O)O)cn(C5CC5)c4n3)sc21` (stereo not drawn) [Example 282, 7-(7-amino-4,5,6,7-tetrahydro-1-benzothien-2-yl)-1-cyclopropyl-4-oxo-1,4-dihydro-1,8-naphthyridine-3-carboxylic acid hydrochloride] has an Antibacterial Activity (MIC's), B [1] of 0.03 µg/mL, an Antibacterial Activity (MIC's), D [2] of 0.015 µg/mL and an Antibacterial Activity (MIC's), E [3] of 0.03 µg/mL. It also gave an Antibacterial Activity (MIC's), A [4] of 0.008 µg/mL and an Antibacterial Activity (MIC's), F [5] of 0.015 µg/mL.
With `COc1c(-c2cc3c(s2)CC(N)C3)ccc2c(=O)c(C(=O)O)cn(C3CC3)c12.Cl` (stereo not drawn) [Example 249, 7-(5-amino-5,6-dihydro-4H-cyclopenta[b]thien-2-yl)-1-cyclopropyl-8-methoxy-4-oxo-1,4-dihydro-3-quinolinecarboxylic acid hydrochloride] the Antibacterial Activity (MIC's), B [1] was 0.125 µg/mL, the Antibacterial Activity (MIC's), D [2] was 0.06 µg/mL and the Antibacterial Activity (MIC's), E [3] was 0.015 µg/mL. The Antibacterial Activity (MIC's), A [4] was 0.03 µg/mL and the Antibacterial Activity (MIC's), F [5] was 0.5 µg/mL.
For `COc1c(-c2cc3c(s2)C(=O)CCC3)ccc2c(=O)c(C(=O)O)cn(C3CC3)c12` [Example 61, 1-cyclopropyl-8-methoxy-4-oxo-7-(7-oxo-4,5,6,7-tetrahydro-1-benzothien-2-yl)-1,4-dihydro-3-quinolinecarboxylic acid], the Antibacterial Activity (MIC's), B [1] was 0.25 µg/mL, the Antibacterial Activity (MIC's), D [2] was 2 µg/mL and the Antibacterial Activity (MIC's), E [3] was 0.125 µg/mL. It also gave an Antibacterial Activity (MIC's), A [4] of 0.03 µg/mL and an Antibacterial Activity (MIC's), F [5] of 0.125 µg/mL.
`COc1c(-c2cc3c(s2)CCCC3=NN2CCCC2)ccc2c(=O)c(C(=O)O)cn(C3CC3)c12` [Example 74, 1-cyclopropyl-8-methoxy-4-oxo-7-((4E/Z)-4-(1-pyrrolidinylimino)-4,5,6,7-tetrahydro-1-benzothien-2-yl)-1,4-dihydro-3-quinolinecarboxylic acid] showed an Antibacterial Activity (MIC's), B [1] of 0.25 µg/mL, an Antibacterial Activity (MIC's), D [2] of 0.5 µg/mL and an Antibacterial Activity (MIC's), E [3] of 0.06 µg/mL. It also gave an Antibacterial Activity (MIC's), A [4] of 0.015 µg/mL and an Antibacterial Activity (MIC's), F [5] of 0.125 µg/mL.
With `O=C(O)c1cn(C2CC2)c2c(Cl)c(-c3cc4c(s3)C(O)CCC4)ccc2c1=O` (stereo not drawn) [Example 315, 8-chloro-1-cyclopropyl-7-(7-hydroxy-4,5,6,7-tetrahydro-1-benzothien-2-yl)-4-oxo-1,4-dihydroquinoline-3-carboxylic acid] the Antibacterial Activity (MIC's), B [1] was 0.06 µg/mL, the Antibacterial Activity (MIC's), D [2] was 0.125 µg/mL and the Antibacterial Activity (MIC's), E [3] was 0.008 µg/mL. For the same compound, the Antibacterial Activity (MIC's), A [4] was 0.008 µg/mL and the Antibacterial Activity (MIC's), F [5] was 0.125 µg/mL.
`CNC1CCCc2sc(-c3cc4c(cc3F)c(=O)c(C(=O)O)cn4C3CC3)cc21.Cl` (stereo not drawn) [Example 290, 1-cyclopropyl-6-fluoro-7-(4-(methylamino)-4,5,6,7-tetrahydro-1-benzothien-2-yl)-4-oxo-1,4-dihydroquinoline-3-carboxylic acid hydrochloride] showed an Antibacterial Activity (MIC's), B [1] of 0.125 µg/mL, an Antibacterial Activity (MIC's), D [2] of 0.03 µg/mL and an Antibacterial Activity (MIC's), E [3] of 0.015 µg/mL. It also gave an Antibacterial Activity (MIC's), A [4] of 0.03 µg/mL and an Antibacterial Activity (MIC's), F [5] of 0.03 µg/mL.
For `COc1c(-c2cc3c(s2)CCC(F)(F)C3O)ccc2c(=O)c(C(=O)O)cn(C3CC3)c12` (stereo not drawn) [Example 204, 1-cyclopropyl-7-(5,5-difluoro-4-hydroxy-4,5,6,7-tetrahydro-1-benzothien-2-yl)-8-methoxy-4-oxo-1,4-dihydro-3-quinolinecarboxylic acid], the Antibacterial Activity (MIC's), B [1] was 0.03 µg/mL, the Antibacterial Activity (MIC's), D [2] was 0.125 µg/mL and the Antibacterial Activity (MIC's), E [3] was no more than 0.004 µg/mL. The Antibacterial Activity (MIC's), A [4] was no more than 0.004 µg/mL and the Antibacterial Activity (MIC's), F [5] was 0.125 µg/mL.
`COc1c(-c2cc3c(s2)CCC(C)C3O)ccc2c(=O)c(C(=O)O)cn(C3CC3)c12` (stereo not drawn) [Example 185, 1-cyclopropyl-7-(4-hydroxy-5-methyl-4,5,6,7-tetrahydro-1-benzothien-2-yl)-8-methoxy-4-oxo-1,4-dihydro-3-quinolinecarboxylic acid] gave an Antibacterial Activity (MIC's), B [1] of 0.25 µg/mL, an Antibacterial Activity (MIC's), D [2] of 0.5 µg/mL and an Antibacterial Activity (MIC's), E [3] of 0.125 µg/mL. It also gave an Antibacterial Activity (MIC's), A [4] of 0.015 µg/mL and an Antibacterial Activity (MIC's), F [5] of 0.5 µg/mL.
`COc1c(-c2cc3c(s2)CCCC3=NNC(N)=O)ccc2c(=O)c(C(=O)O)cn(C3CC3)c12` [Example 80, 7-((4E/Z)-4-((aminocarbonyl)hydrazono)-4,5,6,7-tetrahydro-1-benzothien-2-yl)-1-cylopropyl-8-methoxy-4-oxo-1,4-dihydro-3-quinolinecarboxylic acid] gave an Antibacterial Activity (MIC's), B [1] greater than 64 µg/mL, an Antibacterial Activity (MIC's), D [2] greater than 64 µg/mL and an Antibacterial Activity (MIC's), E [3] of 0.06 µg/mL. It also gave an Antibacterial Activity (MIC's), A [4] of 32 µg/mL and an Antibacterial Activity (MIC's), F [5] of 0.03 µg/mL.
In the case of `COc1c(-c2cc3c(s2)CCCC3CO)ccc2c(=O)c(C(=O)O)cn(C3CC3)c12` (stereo not drawn) [Example 110, 1-cyclopropyl-7-(4-(hydroxymethyl)-4,5,6,7-tetrahydro-1-benzothien-2-yl)-8-methoxy-4-oxo-1,4-dihydro-3-quinolinecarboxylic acid], the Antibacterial Activity (MIC's), B [1] is reported as 0.06 µg/mL, the Antibacterial Activity (MIC's), D [2] is reported as 0.25 µg/mL and the Antibacterial Activity (MIC's), E [3] is reported as 0.015 µg/mL. The Antibacterial Activity (MIC's), A [4] was 0.004 µg/mL and the Antibacterial Activity (MIC's), F [5] was 0.06 µg/mL.
`CNC1CCCc2sc(-c3c(F)cc4c(=O)c(C(=O)O)cn(C5CC5)c4c3F)cc21.Cl` (stereo not drawn) [Example 291, 1-cyclopropyl-6,8-difluoro-7-(4-(methylamino)-4,5,6,7-tetrahydro-1-benzothien-2-yl)-4-oxo-1,4-dihydroquinoline-3-carboxylic acid hydrochloride] was tested, and the Antibacterial Activity (MIC's), B [1] was 0.125 µg/mL, the Antibacterial Activity (MIC's), D [2] was 0.03 µg/mL and the Antibacterial Activity (MIC's), E [3] was 0.015 µg/mL. The Antibacterial Activity (MIC's), A [4] was 0.015 µg/mL and the Antibacterial Activity (MIC's), F [5] was 0.03 µg/mL.
`COc1c(-c2cc3c(s2)CCCC3=NNC(N)=S)ccc2c(=O)c(C(=O)O)cn(C3CC3)c12` [Example 84, 7-((4E/Z)-4-[(aminocarbothioyl)hydrazono)-4,5,6,7-tetrahydro-1-benzothien-2-yl)-1-cyclopropyl-8-methoxy-4-oxo-1,4-dihydro-3-quinolinecarboxylic acid] gave an Antibacterial Activity (MIC's), B [1] of 0.25 µg/mL, an Antibacterial Activity (MIC's), D [2] of 1 µg/mL and an Antibacterial Activity (MIC's), E [3] of 0.125 µg/mL. For the same compound, the Antibacterial Activity (MIC's), A [4] was 0.06 µg/mL and the Antibacterial Activity (MIC's), F [5] was 0.25 µg/mL.
`Cl.NC1CCCc2cc(-c3c(F)cc4c(=O)c(C(=O)O)cn(C5CC5)c4c3F)sc21` (stereo not drawn) [Example 309, 7-(7-amino-4,5,6,7-tetrahydro-1-benzothien-2-yl)-1-cyclopropyl-6,8-difluoro-4-oxo-1,4-dihydroquinoline-3-carboxylic acid hydrochloride] gave an Antibacterial Activity (MIC's), B [1] of 0.06 µg/mL, an Antibacterial Activity (MIC's), D [2] of 0.03 µg/mL and an Antibacterial Activity (MIC's), E [3] of 0.015 µg/mL. It also gave an Antibacterial Activity (MIC's), A [4] of 0.015 µg/mL and an Antibacterial Activity (MIC's), F [5] of 0.06 µg/mL.
For `COc1c(-c2cc3c(s2)CNCC3N)ccc2c(=O)c(C(=O)O)cn(C3CC3)c12` (stereo not drawn) [Example 225, 7-(4-amino-4,5,6,7-tetrahydrothieno[2,3-c]pyridin-2-yl)-1-cyclopropyl-8-methoxy-4-oxo-1,4-dihydro-3-quinolinecarboxylic acid], the Antibacterial Activity (MIC's), B [1] was 0.5 µg/mL, the Antibacterial Activity (MIC's), D [2] was 1 µg/mL and the Antibacterial Activity (MIC's), E [3] was 0.125 µg/mL. It also gave an Antibacterial Activity (MIC's), A [4] of 0.5 µg/mL and an Antibacterial Activity (MIC's), F [5] of 0.25 µg/mL.
`COc1c(-c2cc3c(s2)CCCC3=NN2CCOCC2)ccc2c(=O)c(C(=O)O)cn(C3CC3)c12` [Example 68, 1-cyclopropyl-8-methoxy-7-((4E/Z)-4-(4-morpholinvlimino)-4,5,6,7-tetrahydro-1-benzothien-2-yl)-4-oxo-1,4-dihydro-3-quinolinecarboxylic acid] showed an Antibacterial Activity (MIC's), B [1] of 0.125 µg/mL, an Antibacterial Activity (MIC's), D [2] of 0.5 µg/mL and an Antibacterial Activity (MIC's), E [3] of 0.06 µg/mL. The Antibacterial Activity (MIC's), A [4] was 0.008 µg/mL and the Antibacterial Activity (MIC's), F [5] was 0.125 µg/mL.
Compound `COc1c(-c2cc3c(s2)CC(N)CC3)ccc2c(=O)c(C(=O)O)cn(C3CC3)c12.O=C(O)C(F)(F)F` (stereo not drawn) [Example 71, 7-(6-amino-4,5,6,7-tetrahydro-1-benzothien-2-yl)-1-cyclopropyl-8-methoxy-4-oxo-1,4-dihydro-3-quinolinecarboxylic acid, trifluoroactic acid salt] has an Antibacterial Activity (MIC's), B [1] of 0.03 µg/mL, an Antibacterial Activity (MIC's), D [2] of 0.06 µg/mL and an Antibacterial Activity (MIC's), E [3] of 0.015 µg/mL. It also gave an Antibacterial Activity (MIC's), A [4] of 0.03 µg/mL and an Antibacterial Activity (MIC's), F [5] of 0.015 µg/mL.
`COc1c(-c2nc3c(s2)C(=O)CCC3)ccc2c(=O)c(C(=O)O)cn(C3CC3)c12` [Example 239, 1-cyclopropyl-8-methoxy-4-oxo-7-(7-oxo-4,5,6,7-tetrahydro-1,3-benzothiazol-2-yl)-1,4-dihydro-3-quinolinecarboxylic acid] gave an Antibacterial Activity (MIC's), B [1] of 32 µg/mL, an Antibacterial Activity (MIC's), D [2] of 32 µg/mL and an Antibacterial Activity (MIC's), E [3] of 4 µg/mL. The Antibacterial Activity (MIC's), A [4] was 1 µg/mL and the Antibacterial Activity (MIC's), F [5] was greater than 64 µg/mL.
